The text below walks through data of patent publication US8519004B2 (Repros Therapeutics Inc., priority 2005, dated 2013).

In data set [1] the test system is serum cholesterol. As to the kind of experiment: Serum cholesterol in male baboons. Type of data set: in vivo. As to conditions: 1.5 mg/kg for 12 days.
Text: (§1) The samples analyzed were sera taken on the day of first treatment before being given test article (day 0), after 12 days of treatment (day 12) and 7 days after the last treatment (end or wash-out).
Data set [2] is described as follows: Clinical chemistry and hematology parameters in male baboons. As to conditions: for serum glucose: change with treatment; for ALT/SGPT: changes over the treatment period / end of the study; for serum carbon dioxide: day 12; for serum anion gap: day 12 and washout; for BUN and BUN/creatinine: during the study. Type of data set: in vivo.
Text: as §1
In data set [3] the test system is serum testosterone. Put plainly: Serum testosterone in male baboons given Clomid, Enclomid or Zuclomid. It is filed as in vivo. As to conditions: between day 12 and day 18 (washout).
Text: as §1
Data set [4] relates to serum LH and FSH. As to conditions: during treatment.
Experimental: (§2) Half of the men in each of the Androxal™ and placebo arms were randomized into cohorts that underwent in-clinic sessions on days 1 and 14 to determine pharmacokinetic parameters for Androxal™ as well as cyclical changes in testosterone. The placebo and Androxal™ doses were administered in a double blind fashion. The Androgel® cream was administered in an open label fashion. Half of the Androgel® patients underwent in-clinic sessions similar to the other patients in the study. Following the two week drug exposure patients were followed for an additional seven to ten days to determine the status of their testosterone levels.
For data set [5] the following is noted: 50 mg dose; placebo group ratio 1.07.
Experimental: as §2
The test system of data set [6] is serum total testosterone.
Experimental: as §2
For data set [7] the following is noted: following a single dose; cited from earlier work.

Where a name gives a salt, the structure may show the parent alone.

With `CCN(CC)CCOc1ccc(C(=C(Cl)c2ccccc2)c2ccccc2)cc1` [Clomid, clomiphene citrate], the “increase in serum cholesterol levels” value in data set [1] is “slight increase”. In data set [2], the serum glucose entry is listed as “within the normal range”, the ALT/SGPT entry is given as “out of range low”, the serum carbon dioxide result is given as “higher than reference values” and the serum anion gap result is “lower values than the Enclomid group”. The “BUN and BUN/creatinine” value in data set [2] is “altered”.

`CCN(CC)CCOc1ccc(/C(=C(\Cl)c2ccccc2)c2ccccc2)cc1` [Enclomid, trans-clomiphene]: in data set [3], the “change in total serum testosterone after cessation of treatment” value is given as “significant drop in the level of total serum testosterone”. In data set [2] (1.5 mg/kg for 12 days), the eosinophil count result is “raising the counts of lymphocytes and eosinophiles”; the lymphocyte count entry was “increase in lymphocyte count”; the “red blood cell population” value is given as “substantive effects on the red blood cell population”. Besides, the serum creatinine result in data set [2] (between day 0 and Day 12) is given as “no differences between serum creatinine values”. For the same compound, in data set [2], the ALT/SGPT result is given as “within the normal range”; the serum anion gap result is listed as “raised this parameter towards normal values”; the “BUN and BUN/creatinine” value is “altered”. In addition, the “percent of granulocytes in the blood” value in data set [2] (very strong after the 7-day washout period) is listed as “lowering the percent of granulocytes in the blood”. In addition, in data set [4], the “serum levels of FSH” value is reported as “statistically increase” and the “serum levels of LH” value is on record as “statistically significant increase”. Moreover, in data set [5], the DHT/TT ratio came out at 0.83. The “serum total testosterone in the follow-up period” value in data set [6] (7-10 days after cessation of daily oral treatment) is given as “remained high”. For the same compound, in data set [6] (all doses), the “changes in testosterone from baseline testosterone levels” value is “statistically significant changes in testosterone”. Moreover, the “serum total testosterone in follow-up, highest dose compared to the high dose of AndroGel 1%” value in data set [6] (follow-up period, p=0.017, t-test) is reported as “significantly higher”.

In the case of `CCN(CC)CCOc1ccc(/C(=C(/Cl)c2ccccc2)c2ccccc2)cc1` [Zuclomid, cis-clomiphene], the “red blood cell population” value in data set [2] (1.5 mg/kg for 12 days) is on record as “substantive effects on the red blood cell population”. In data set [2], the serum glucose entry was “within the normal range”, the ALT/SGPT result was “within the normal range”, the serum carbon dioxide entry is “higher than reference values” and the serum anion gap entry is reported as “lower values than the Enclomid group”. In addition, in data set [7], the “duration of residual blood levels” value is “in excess of one month”.
